Measurements as given in patent publication US20130012432A1, “Peptides for Treatment of Obesity” (Novo Nordisk A/S, priority 2010, published 2013).
≈ marks a conversion by molar mass, not a printed value. Positions of bridges follow the written chain, without caps; N, C: chain ends. Non-standard residues stand in square brackets, D forms with d. Residues, ends and D or L forms follow the SMILES beside them. Groups on a side chain read outwards from the residue. *: point of attachment. Palmitoyl(16-(5-tetrazolyl)) = O=C(CCCCCCCCCCCCCCCc1nnn[nH]1)*; Lys(CH2CO2H)2 = N[C@@H](CCCCN(CC(=O)O)CC(=O)O)C(=O)O; C18 diacid = O=C(O)CCCCCCCCCCCCCCCCC(=O)*; NTA = O=C(O)CN(CC(=O)O)CC(=O)*; Orn = NCCC[C@H](N)C(=O)O; Dap = NC[C@H](N)C(=O)O; AEEA = NCCOCCOCC(=O)O

Tests used:
[1] = physchem; settings: vehicle 10 mM phosphate
Description: From a stock solution in vehicle, either H2O or 10 mM phosphate, containing 1 mg (as weighed) compound per ml, 8-11 aliquots are withdrawn and pH-adjusted individually with HCl/NaOH, to cover the whole pH range.

[2] = target: human MC4 receptor (Homo sapiens, UniProt P32245); experiment: biochemical
Sequence of human MC4 receptor (P32245 whole entry): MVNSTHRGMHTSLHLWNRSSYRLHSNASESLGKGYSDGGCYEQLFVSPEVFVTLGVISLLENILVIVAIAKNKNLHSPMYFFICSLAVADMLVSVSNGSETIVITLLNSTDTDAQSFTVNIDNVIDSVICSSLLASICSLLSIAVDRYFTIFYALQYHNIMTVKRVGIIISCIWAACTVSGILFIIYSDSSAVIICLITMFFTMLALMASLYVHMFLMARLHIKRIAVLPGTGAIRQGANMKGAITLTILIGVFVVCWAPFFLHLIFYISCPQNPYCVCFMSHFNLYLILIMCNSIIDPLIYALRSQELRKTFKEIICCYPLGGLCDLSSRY
Description: Assay (V)—Melanocortin Receptor 4 (MC4) Binding Assay
In Vitro ^125NDP-α-MSH Binding to Recombinant BHK Cells Expressing Human MC4 Receptor (Filtration Assay).
The assay was performed in 5 ml minisorb vials (Sarstedt No. 55.526) or in 96-well filter-plates (Millipore MADVN 6550), and using BHK cells expressing the human MC4 receptor using BHK cells stably expressing the human MC4 receptor. The membranes were prepared from frozen or fresh cells that were homogenized in 20 mM HEPES pH 7.1, 5 mM MgCl2 and 1 mg/ml bacitracin and centrifuged at 15000 rpm at 4° C., 10 min in a Sorvall RC 5B plus, SS-34 rotor. The supernatant was discarded, and the pellets were re-suspended in buffer, homogenized and centrifuged two more times. The final pellets were resuspended in the buffer mentioned above, and the protein concentration was measured and adjusted with buffer to 14 to 17 mg/ml and the membrane preparation were kept at −80° C. until assay. The assay was run directly on a dilution of this cell membrane suspension, without any further preparation. The BHK cell membranes are kept at −80° C. until assay, and the assay is run directly on a dilution of this cell membrane suspension, without further preparation. The suspension is diluted to give maximally 10% specific binding, i.e. to approx. 50-100 fold dilution. The assay was performed in a total volume of 200 μl: 50 μl of cell suspension, 50 μl of ^125NDP-α-MSH (≈79 pM in final concentration), 50 μl of test compound and 50 μl binding buffer (pH 7) mixed and incubated for 2 h at 25° C. [binding buffer: 25 mM HEPES, pH 7.0, 1 mM CaCl2, 1 mM MgSO4, 1 mM EGTA, 0.02% Bacitracin, 0.005% Tween™ 20 and 0.1% HSA or, alternatively, 0.1% ovalbumin (Sigma; catalogue No. A-5503)]. Test compounds were dissolved in DMSO and diluted in binding buffer. Radiolabelled ligand and membranes were diluted in binding buffer. The incubation was stopped by dilution with 2×100 μl ice-cold 0.9% NaCl. The radioactivity retained on the filters was counted using a Cobra II auto gamma counter.
The data were analysed by non-linear regression analysis of binding curves, using the Windows™ program GraphPad™ Prism (GraphPad Software, USA).

[3] = pH 6.4, Solubility Conc., pH 6.4
[4] = pH 6.7, Solubility Conc., pH 6.7
[5] = pH 7.2, Solubility Conc., pH 7.2
[6] = pH 7.8, Solubility Conc., pH 7.8

SMILES | solubility [1, 3] | solubility [1, 4] | solubility ([1]; pH 6.9, Solubility Conc., pH 6.9) | solubility ([1]; pH 7, Solubility Conc., pH 7.0) | solubility [1, 5] | solubility ([1]; pH 7.3, Solubility Conc., pH 7.3) | solubility ([1]; pH 7.4, Solubility Conc., pH 7.4) | solubility [1, 6] | solubility ([1]; pH 8, Solubility Conc., pH 8.0) | Ki [2] | solubility ([1]; pH 4.8, Solubility Conc., pH 4.8) | solubility ([1]; pH 5.6, Solubility Conc., pH 5.6) | solubility ([1]; pH 7.5, Solubility Conc., pH 7.5) | solubility ([1]; pH 8.1, Solubility Conc., pH 8.1)
CC(=O)N[C@H]1CCCNC(=O)C[C@@H](C(=O)N2CCC[C@H]2C(=O)N[C@@H](CO)C(=O)N[C@@H](CO)C(=O)N[C@@H](CO)C(=O)N[C@@H](CCCCN(CC(=O)O)CC(=O)O)C(=O)N[C@@H](CO)C(=O)N[C@@H](CO)C(=O)N[C@@H](CCCCNC(=O)COCCOCCNC(=O)CCCCCCCCCCCCCCCCC(=O)O)C(N)=O)NC(=O)[C@H](Cc2c[nH]c3ccccc23)NC(=O)[C@H](CCCNC(=N)N)NC(=O)[C@@H](Cc2ccccc2)NC(=O)[C@H](Cc2c[nH]cn2)NC1=O [Example 14, Ac-c[Orn-His-D-Phe-Arg-Trp-Asp]-Pro-Ser-Ser-Ser-Lys(biscarboxymethyl)-Ser-Ser-Lys({2-[2-(17-carboxyheptadecanoylamino)ethoxy]ethoxy}acetyl)-NH2] (Ac-[Orn]H[dF]RWDPSSS[Lys(CH2CO2H)2]SSK([AEEA-C18 diacid])-NH2; lactam 1-6) | 61 µM (≈ 137 µg/mL) | 148 µM (≈ 332 µg/mL) | 403 µM (≈ 904 µg/mL) | 485 µM (≈ 1090 µg/mL) | 507 µM (≈ 1140 µg/mL) | 535 µM (≈ 1200 µg/mL) | 513 µM (≈ 1150 µg/mL) | 506 µM (≈ 1140 µg/mL) | 517 µM (≈ 1160 µg/mL) | 800 pM | – | – | – | –
CC(=O)N[C@H]1CC(=O)NC[C@@H](C(=O)N2CCC[C@H]2C(=O)N2CCC[C@H]2C(=O)N[C@@H](CCCNC(=N)N)C(=O)N[C@@H](CC(=O)O)C(=O)N[C@@H](CCCCNC(=O)CN(CC(=O)O)CC(=O)O)C(=O)N[C@@H](CCCCNC(=O)COCCOCCNC(=O)CCCCCCCCCCCCCCCc2nnn[nH]2)C(N)=O)NC(=O)[C@H](Cc2c[nH]c3ccccc23)NC(=O)[C@H](CCCNC(=N)N)NC(=O)[C@@H](Cc2ccccc2)NC(=O)[C@H](Cc2c[nH]cn2)NC1=O [Example 24, Ac-c[Asp-His-D-Phe-Arg-Trp-Dap]-Pro-Pro-Arg-Asp-Lys(BCMA)-Lys[(2-{2-[16-(tetrazol-5-yl)hexadecanoylamino]ethoxy}ethoxy)acetyl]-NH2] (Ac-DH[dF]RW[Dap]PPRDK(NTA)K([AEEA-Palmitoyl(16-(5-tetrazolyl))])-NH2; lactam 1-6) | – | – | – | – | – | – | – | – | – | 107000 pM | – | – | – | –
CC(=O)N[C@H]1CCCNC(=O)C[C@@H](C(=O)N2CCC[C@H]2C(=O)N[C@@H](CO)C(=O)N[C@@H](CO)C(=O)N[C@@H](CO)C(=O)N[C@@H](CCCCN(CC(=O)O)CC(=O)O)C(=O)N[C@@H](CO)C(=O)N[C@@H](CO)C(=O)N[C@@H](CCCCNC(=O)COCCOCCNC(=O)CCCCCCCCCCCCCCCc2nnn[nH]2)C(N)=O)NC(=O)[C@H](Cc2c[nH]c3ccccc23)NC(=O)[C@H](CCCNC(=N)N)NC(=O)[C@@H](Cc2ccccc2)NC(=O)[C@H](Cc2c[nH]cn2)NC1=O [Example 28, Ac-c[Orn-His-D-Phe-Arg-Trp-Asp]-Pro-Ser-Ser-Ser-Lys(biscarboxymethyl)-Ser-Ser-Lys[(2-{2-[16-(tetrazol-5-yl)hexadecanoylamino]ethoxy}ethoxy)acetyl]-NH2] (Ac-[Orn]H[dF]RWDPSSS[Lys(CH2CO2H)2]SSK([AEEA-Palmitoyl(16-(5-tetrazolyl))])-NH2; lactam 1-6) | 59 µM (≈ 133 µg/mL) | 126 µM (≈ 284 µg/mL) | – | 382 µM (≈ 861 µg/mL) | 406 µM (≈ 915 µg/mL) | – | – | 433 µM (≈ 976 µg/mL) | – | 900 pM | 71 µM (≈ 160 µg/mL) | 40 µM (≈ 90.1 µg/mL) | 410 µM (≈ 924 µg/mL) | 415 µM (≈ 935 µg/mL)
